Patent EP1770089A1, “Pyranodibenzofuran derivatives with antifungal and antibacterial activity” (priority 2005, dated 2007)
Converted amounts (≈) assume the structure as drawn.

Legend:
[1] = test system: M. tuberculosis RIF resistant (2004/0499); assay: microbe, parasite or virus in culture; type: cell-based; details: Mycobacterium tuberculosis
[2] = test system: M. tuberculosis INH resistant (2003/1762); assay: microbe, parasite or virus in culture; type: cell-based; details: Mycobacterium tuberculosis

Compound: CC1(C)C=Cc2c(ccc3oc4ccccc4c23)O1 [Compound 9, 3,3-dimethyl-3H-benzofuro[3,2-f][1]benzopyran]
- MIC99 [1]: 5 µg/mL (≈ 20 µM)
- MIC99 [2]: 5 µg/mL (≈ 20 µM)

Compound: NNC(=O)c1ccncc1 [INH, isoniazid, reference compound]
- MIC99 [1]: 0.1 µg/mL (≈ 0.729 µM)
- MIC99 [2]: 5 µg/mL (≈ 36.5 µM)

Compound: CC1(C)CCc2c(ccc3oc4ccccc4c23)O1 [Compound 16, 1,2-dihydro-3,3-dimethyl-3H-benzofuro[3,2-f][1]benzopyran]
- MIC99 [1]: 1 µg/mL (≈ 3.96 µM)
- MIC99 [2]: 1 µg/mL (≈ 3.96 µM)
